{"source": "patent US9981970B2", "about": "“Bicyclic ureas and thiadiazolidine-1, 1-dioxides as CETP inhibitors” (Merck Sharp & Dohme Corp., priority 2013, dated 2018)", "key": {"[1]": {"molecular_target": "T1, endogenous CETP from serum (Homo sapiens, UniProt P11597)", "T1 construct": "yielding a concentration of approximately 15 nM endogenous CETP in the assay; from tissue; host or cells: human serum", "T1 sequence (P11597 18-493)": "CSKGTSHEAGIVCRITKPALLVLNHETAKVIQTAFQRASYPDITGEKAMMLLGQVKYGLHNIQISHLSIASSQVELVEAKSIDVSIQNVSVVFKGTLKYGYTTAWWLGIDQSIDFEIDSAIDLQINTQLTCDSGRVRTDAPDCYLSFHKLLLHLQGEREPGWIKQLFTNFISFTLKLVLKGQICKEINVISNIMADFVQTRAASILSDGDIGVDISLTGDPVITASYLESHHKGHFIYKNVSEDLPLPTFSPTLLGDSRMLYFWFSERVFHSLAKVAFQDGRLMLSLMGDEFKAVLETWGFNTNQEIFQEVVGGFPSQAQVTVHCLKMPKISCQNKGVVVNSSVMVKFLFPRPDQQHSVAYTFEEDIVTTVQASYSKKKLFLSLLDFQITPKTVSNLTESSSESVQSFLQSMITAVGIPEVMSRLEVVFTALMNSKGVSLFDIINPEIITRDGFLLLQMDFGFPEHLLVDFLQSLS", "experiment": "RTA assay in 95% human serum (in vitro radioactive assay of CETP-catalyzed CE and TG transfer)", "assay_type": "biochemical", "details": "Table 1; data generally obtained using the RTA assay in 95% human serum; read-out: IC50", "text": "In Vitro Radioactive Assays of CETP-Catalyzed CE and TG Transfer (RTA Assay)\nReagents and sources are: [3H] cholesteryl oleate (GE #TRK.886), [3H] Triolein (Perkin-Elmer NET-431), Butylated hydroxyl toluene (Aldrich, #D4740-4), DOPC (Sigma, # P6354), Sodium Bromide (Fisher scientific #S255-500), PEG 8000 (Fisher, #BP233-1), and human HDL (Intracel Corp #RP-036).\nBoth assays measure the transfer of [3H] cholesteryl oleate or [3H] triolein from exogenous LDL to HDL.\nRadiolabeled donor particles are generated by first combining 100 μl of 200 μM butylated hydroxyl toluene in CHCl3, 216 μL of 21.57 mM DOPC in EtOH, and either 500 μCi [3H]-triolein (Perkin Elmer #NET-431) or 500 μCi [3H]-cholesteryl oleate (GE #TRK886) in a glass tube. Reagents are mixed, dried under nitrogen, and then resuspended in 2 mL of 50 mM Tris, 27 μM EDTA at pH 7.4. After a brief vortex, the solution is sonicated until clear and mixed with 20 mL of fresh human serum. The mixture is incubated overnight at 37° C. The [3H] labeled LDL substrate is separated at 1.063 g/ml density by sequential ultracentrifugal flotation in NaBr according to the method of Havel, Eder, et al., 1955, and Chapman, Goldstein, et al., 1981. Once isolated the particles are dialyzed 3× in CETP buffer (50 mM Tris, pH 7.4, 100 mM NaCl, 1 mM EDTA). Human HDL is purchased from Intracel and used as the acceptor particles.\nTransfer assays are performed in a 96-well v-bottom polypropylene plate. For the RTA using recombinant CETP (2% RTA), an assay cocktail is prepared with the final concentrations 128 μg/mL HDL, 20 nM rCETP, 2% human serum, and 1×CETP buffer. 1 μL of each test compound diluted in DMSO is added to 47 μL of assay cocktail per well and incubated at 37° C. for 1 hour. To initiate the transfer reaction, 2 μL radiolabeled LDL is added. After an additional 60 min of incubation at 37° C., the transfer action is terminated by precipitation of LDL with an equal volume of 20% WN PEG 8000. The plates are centrifuged at 2000 rpm for 30 minutes at 4° C. A 40 μL aliquot of the HDL-containing supernatant is transferred to a Packard Optiplate™ with 200 μL of MicroScint™ 20. After mixing, plates are counted by liquid scintillation. Counts present in the supernatant for blanks (wells containing only HDL acceptor, CETP buffer and DMSO) are subtracted from those containing test compounds and used to correct for non-specific transfer.\nThis is then combined with HDL and CETP buffer and the reaction proceeds as above and is terminated as described.\nComparison of the counts of samples with inhibitors to an uninhibited (DMSO only) positive control yield a percent inhibition. A plot of percent inhibition vs. log of inhibitor concentration, fit to a Sigmoidal 4 parameter equation is used to calculate IC50.\nStarting materials are commercially available or are made using known procedures or as shown below. The examples may be synthesized according to the general schemes provided below and by using the synthetic intermediates that are described. […] When compounds of Formula I are mentioned herein, such compounds include compounds defined generically by Formula I and also the specific examples disclosed herein."}, "[2]": {"details": "patients on anacetrapib with baseline statin therapy compared with patients treated with just a statin; cited from earlier work"}}}
{"compound": "COc1ccc(-c2ccc(C(=O)O)cc2C)cc1-c1ccc(C(F)(F)F)cc1[C@@H]1CC[C@H]2[C@@H](c3ccnc(C(F)(F)F)c3)NC(=O)N12", "note": "[Example 19, 4′-methoxy-2-methyl-2″-{(1R,5S,7aS)-3-oxo-1-[2-(trifluoromethyl)pyridin-4-yl]hexahydro-1H-pyrrolo[1,2-c]imidazol-5-yl}-4″-(trifluoromethyl)-1,1′:3′,1″-terphenyl-4-carboxylic acid]", "values": [{"measurement": "IC50", "setting": "[1]", "result": 4870, "unit": "nM"}]}
{"compound": "COc1ccc(-c2ccc(C(=O)O)cc2C)cc1-c1cnc(C(F)(F)F)cc1[C@@H]1CC[C@H]2[C@@H](c3cc(C(F)(F)F)cc(C(F)(F)F)c3)NC(=O)N12", "note": "[Example 20, 3′-[4-{(1R,5S,7aS)-1-[3,5-bis(trifluoromethyl)phenyl]-3-oxohexahydro-1H-pyrrolo[1,2-c]imidazol-5-yl}-6-(trifluoromethyl)pyridin-3-yl]-4′-methoxy-2-methylbiphenyl-4-carboxylic acid]", "values": [{"measurement": "IC50", "setting": "[1]", "result": 1570, "unit": "nM"}]}
{"compound": "COc1ccc(-c2ccc(C(=O)O)cc2C)cc1-c1ccc(C(F)(F)F)cc1[C@@H]1CC[C@H]2[C@@H](c3cc(C(F)(F)F)cc(C(F)(F)F)c3)NS(=O)(=O)N12", "note": "[Example 22, 2″-{(3R,3aS,6S)-3-[3,5-bis(trifluoromethyl)phenyl]-1,1-dioxidohexahydropyrrolo[1,2-b][1,2,5]thiadiazol-6-yl}-4′-methoxy-2-methyl-4″-(trifluoromethyl)-1,1′,:3′,1″-terphenyl-4-carboxylic acid]", "values": [{"measurement": "IC50", "setting": "[1]", "result": 984, "unit": "nM"}]}
{"compound": "COc1ccc(C2CCC(C(=O)O)CC2)cc1-c1ccc(C(F)(F)F)cc1[C@@H]1CC[C@H]2[C@@H](c3cc(C(F)(F)F)cc(C(F)(F)F)c3)NS(=O)(=O)N12", "note": "(stereo partly drawn) [Example 23, 4-[2′-{(3R,3aS,6S)-3-[3,5-bis(trifluoromethyl)phenyl]-1,1-dioxidohexahydropyrrolo[1,2-b][1,2,5]thiadiazol-6-yl}-6-methoxy-4′-(trifluoromethyl)biphenyl-3-yl]cyclohexanecarboxylic acid]", "values": [{"measurement": "IC50", "setting": "[1]", "result": 268, "unit": "nM"}]}
{"compound": "COc1ncc(-c2ccc(C(=O)O)cc2C)cc1-c1ccc(C(F)(F)F)cc1[C@@H]1CC[C@H]2[C@@H](c3cc(F)cc(C(F)(F)F)c3)NS(=O)(=O)N12", "note": "[Example 24, 4-{5-[2-{(3R,3aS,6S)-3-[3-fluoro-5-(trifluoromethyl)phenyl]-1,1-dioxidohexahydropyrrolo[1,2-b][1,2,5]thiadiazol-6-yl}-4-(trifluoromethyl)phenyl]-6-methoxypyridin-3-yl}-3-methylbenzoic acid]", "values": [{"measurement": "IC50", "setting": "[1]", "result": 1260, "unit": "nM"}]}
{"compound": "COc1ccc(CCC(=O)O)cc1-c1ccc(C(F)(F)F)cc1[C@@H]1CC[C@H]2[C@@H](c3cc(F)cc(C(F)(F)F)c3)NS(=O)(=O)N12", "note": "[Example 25, 3-[2′-{(3R,3aS,6S)-3-[3-fluoro-5-(trifluoromethyl)phenyl]-1,1-dioxidohexahydropyrrolo[1,2-b][1,2,5]thiadiazol-6-yl}-6-methoxy-4′-(trifluoromethyl)biphenyl-3-yl]propanoic acid]", "values": [{"measurement": "IC50", "setting": "[1]", "result": 3120, "unit": "nM"}]}
{"compound": "COc1cc(F)c(C(C)C)cc1-c1ccc(C(F)(F)F)cc1CN1C(=O)O[C@H](c2cc(C(F)(F)F)cc(C(F)(F)F)c2)[C@@H]1C", "note": "[anacetrapib]", "values": [{"measurement": "decrease of LDL-C", "setting": "[2]", "result": 40, "unit": "%"}, {"measurement": "increase of HDL-C", "setting": "[2]", "result": 138, "unit": "%"}]}
